In general, Emax refers to the size of the effect at its maximum, as opposed to the concentration needed.

The target of one experiment is T1, human GLP1 receptor (Homo sapiens, UniProt P43220).
T1 construct: expressed in transfected cells; host or cells: HEK cells, BacMam virus transduction
Nature of the experiment: cAMP accumulation assay, functional agonism of human GLP1 receptor. It is filed as cell-based. To be noted: HEK cells infected with human GLP1 receptor BacMam virus, HTRF cAMP; for Emax: HEK293, read-out: Human GLP-1R agonist cAMP Emax; for EC50: read-out: Human GLP-1R agonist cAMP pEC50 (converted). In short, it runs like this:
(§1)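 cAMP by HTRF in BacMam-transduced HEK cells (24 h infection, frozen stocks); 0.5 mM IBMX in HBSS, 45 min, 37° C.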
In general terms: Cyclic AMP is a second messenger, typically raised through Gs and lowered through Gi signalling.

For a further experiment, the target named is T2, human GLP2 receptor (Homo sapiens, UniProt O95838).
T2 construct: expressed in transfected cells; host or cells: HEK cells, BacMam virus transduction
T2 sequence (O95838 1-553): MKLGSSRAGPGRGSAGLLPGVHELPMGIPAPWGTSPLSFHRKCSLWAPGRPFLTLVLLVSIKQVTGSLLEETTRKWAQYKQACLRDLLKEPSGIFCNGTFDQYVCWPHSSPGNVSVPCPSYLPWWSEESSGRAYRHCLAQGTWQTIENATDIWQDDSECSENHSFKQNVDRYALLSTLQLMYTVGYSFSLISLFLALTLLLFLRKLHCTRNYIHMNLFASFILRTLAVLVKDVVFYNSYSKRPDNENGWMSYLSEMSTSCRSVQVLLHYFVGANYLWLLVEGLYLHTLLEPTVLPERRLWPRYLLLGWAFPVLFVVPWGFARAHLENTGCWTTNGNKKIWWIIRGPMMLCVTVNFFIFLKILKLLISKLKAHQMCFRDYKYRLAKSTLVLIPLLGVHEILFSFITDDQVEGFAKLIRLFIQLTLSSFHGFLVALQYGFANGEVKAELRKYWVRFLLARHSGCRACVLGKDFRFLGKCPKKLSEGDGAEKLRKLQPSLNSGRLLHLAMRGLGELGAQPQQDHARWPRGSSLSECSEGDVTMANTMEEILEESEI
Put plainly: cAMP accumulation assay, functional agonism of human GLP2 receptor. The settings on record: HEK cells infected with human GLP2 receptor BacMam virus, HTRF cAMP; for Emax: HEK293, read-out: Human GLP-2R agonist cAMP Emax; for EC50: read-out: Human GLP-2R agonist cAMP pEC50 (converted). It is filed as cell-based. Summed up: as §1

Positions of bridges follow the written chain, without caps; N, C: chain ends. Non-standard residues stand in square brackets, D forms with d. Residues, ends and D or L forms follow the SMILES beside them. *: point of attachment. Malonyl(2,2-Me2,histaminyl) = CC(C)(C(=O)NCCc1cnc[nH]1)C(=O)*; Ala(1H-tetrazol-5-yl) = N[C@@H](Cc1nnn[nH]1)C(=O)O; αMePhe(2-F) = C[C@](N)(Cc1ccccc1F)C(=O)O; αMeL = CC(C)C[C@](C)(N)C(=O)O; Nle = CCCC[C@H](N)C(=O)O; Aib = CC(C)(N)C(=O)O; Alloc = C=CCOC(=O)*

T1 sequence (P43220 24-463): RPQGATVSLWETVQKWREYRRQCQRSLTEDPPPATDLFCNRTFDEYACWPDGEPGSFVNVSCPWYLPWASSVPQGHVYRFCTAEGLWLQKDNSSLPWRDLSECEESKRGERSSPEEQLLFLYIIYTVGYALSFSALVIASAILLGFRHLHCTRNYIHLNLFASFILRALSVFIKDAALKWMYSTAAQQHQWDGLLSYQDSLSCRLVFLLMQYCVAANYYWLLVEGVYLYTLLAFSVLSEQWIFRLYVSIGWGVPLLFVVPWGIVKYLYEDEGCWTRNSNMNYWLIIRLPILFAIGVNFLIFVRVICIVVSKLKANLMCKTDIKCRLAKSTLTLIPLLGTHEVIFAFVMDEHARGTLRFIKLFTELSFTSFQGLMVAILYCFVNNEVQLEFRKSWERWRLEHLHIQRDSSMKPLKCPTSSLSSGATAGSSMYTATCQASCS

`CCCC[C@H](NC(=O)[C@H](CCC(=O)O)NC(=O)[C@@H]1CC(=O)NCCCC[C@H](NC(=O)[C@H](CCC(N)=O)NC(=O)C(C)(C)NC(=O)[C@@H](N)Cc2c[nH]cn2)C(=O)N[C@@H](CO)C(=O)N[C@@H](Cc2ccccc2)C(=O)N[C@@H](CO)C(=O)N1)C(=O)N[C@H](Cc1ccccc1)C(=O)N[C@H](C(=O)N[C@@](C)(CC(C)C)C(=O)N[C@@H](CC(C)C)C(=O)N[C@@H](CC(=O)O)C(=O)N[C@H]1CCC(=O)NCCCC[C@@H](C(=O)N[C@@H](CC(=O)O)C(=O)N[C@@H](Cc2ccccc2)C(=O)N[C@H](C(=O)N[C@H]2CCC(=O)NCCCC[C@@H](C(=O)N[C@H]3CCC(=O)NCCCC[C@@H](C(N)=O)NC(=O)[C@H]([C@@H](C)O)NC(=O)[C@H]([C@@H](C)CC)NC(=O)[C@H](CCCCN)NC3=O)NC(=O)[C@H]([C@@H](C)CC)NC(=O)[C@H](CC(C)C)NC(=O)[C@H](Cc3c[nH]c4ccccc34)NC2=O)[C@@H](C)CC)NC(=O)[C@H](C)NC(=O)[C@H](C)NC(=O)[C@H](CCCCN)NC1=O)[C@@H](C)O` [Example 63] (H-H[Aib]QKSFSDE[Nle][dF]T[αMeL]LDEKAAKDFIEWLIKEKITK-NH2; lactam 4-8, 16-20, 24-28, 29-33 (inferred); C-terminus assumed): at human GLP1 receptor, the Emax worked out at 96.9% and the EC50 was 1 nM. Also, on human GLP2 receptor, the Emax was 99.7% and the EC50 is 0.1 nM.

For the compound `CCCC[C@H](NC(=O)[C@H](CCC(=O)O)NC(=O)[C@H](CC(=O)O)NC(=O)[C@H](CO)NC(=O)[C@H](Cc1ccccc1)NC(=O)[C@H](CO)NC(=O)CNC(=O)[C@H](CC(=O)O)NC(=O)C(C)(C)NC(=O)[C@@H](N)Cc1c[nH]cn1)C(=O)N[C@H](Cc1ccccc1)C(=O)N[C@H]1CC(=O)NCCCC[C@@H](C(=O)N[C@@H](CCCCN)C(=O)N[C@@H](C)C(=O)N[C@@H](C)C(=O)N[C@@H](CCCCN)C(=O)N[C@@H](CC(=O)O)C(=O)N[C@@H](Cc2ccccc2)C(=O)N[C@H](C(=O)N[C@@H](CC(N)=O)C(=O)N[C@@H](Cc2c[nH]c3ccccc23)C(=O)N[C@@H](CC(C)C)C(=O)N[C@H](C(=O)N[C@@H](CCC(N)=O)C(=O)N[C@H](C(=O)N[C@@H](CCCCN)C(=O)N[C@H](C(=O)N[C@H](C(=O)N[C@@H](CC(=O)O)C(N)=O)[C@@H](C)O)[C@@H](C)CC)[C@@H](C)O)[C@@H](C)CC)[C@@H](C)CC)NC(=O)[C@H](CC(=O)O)NC(=O)[C@H](CC(C)C)NC(=O)[C@H]([C@@H](C)CC)NC1=O` [Example 97] (H-H[Aib]DGSFSDE[Nle][dF]DILDKKAAKDFINWLIQTKITD-NH2; lactam 12-16; N-terminus and C-terminus assumed), on human GLP1 receptor, the maximum response (Emax) was 96.6% and the EC50 is 0.316 nM. Also, at human GLP2 receptor, the maximal effect (Emax) is 101% and the EC50 was 0.00316 nM.

For the compound `C=CCOC(=O)NCCCC[C@@H]1NC(=O)[C@@H](NC(=O)[C@H](CC(=O)O)NC(=O)[C@H](CC(C)C)NC(=O)[C@@H](NC(=O)[C@@H]2CC(=O)NCCCC[C@H](NC(=O)[C@H](CO)NC(=O)[C@H](Cc3ccccc3)NC(=O)[C@H](CO)NC(=O)CNC(=O)[C@H](Cc3nn[nH]n3)NC(=O)C(C)(C)C(=O)NCCc3c[nH]cn3)C(=O)N[C@@H](CCC(=O)O)C(=O)N[C@@H](CCCC)C(=O)N[C@H](Cc3ccccc3)C(=O)N2)[C@@H](C)CC)CCC(=O)NCCCC[C@@H](C(=O)N[C@@H](CC(=O)O)C(=O)N[C@@H](Cc2ccccc2)C(=O)N[C@H](C(=O)N[C@@H](CC(N)=O)C(=O)N[C@@H](Cc2c[nH]c3ccccc23)C(=O)N[C@@H](CC(C)C)C(=O)N[C@H](C(=O)N[C@@H](CCC(N)=O)C(=O)N[C@H](C(=O)N[C@H]2CCC(=O)NCCCC[C@@H](C(N)=O)NC(=O)[C@H]([C@@H](C)O)NC(=O)[C@H]([C@@H](C)CC)NC2=O)[C@@H](C)O)[C@@H](C)CC)[C@@H](C)CC)NC(=O)[C@H](C)NC(=O)[C@H](C)NC1=O` [Example 23] ({Malonyl(2,2-Me2,histaminyl)}-[Ala(1H-tetrazol-5-yl)]GSFSKE[Nle][dF]DILDEK(Alloc)AAKDFINWLIQTEITK-NH2; lactam 6-10, 14-18, 28-31 (inferred); C-terminus assumed), the maximal response (Emax) at human GLP1 receptor was 94.3%; on human GLP2 receptor, 102%. The EC50 at human GLP1 receptor is 0.794 nM; on human GLP2 receptor, 0.0251 nM.

For `CCCC[C@H](NC(=O)[C@H](CCC(=O)O)NC(=O)[C@H](CC(=O)O)NC(=O)[C@H](CO)NC(=O)[C@H](Cc1ccccc1)NC(=O)[C@H](CO)NC(=O)CNC(=O)[C@H](CC(=O)O)NC(=O)C(C)(C)NC(=O)[C@@H](N)Cc1c[nH]cn1)C(=O)N[C@H](Cc1ccccc1)C(=O)N[C@H](C(=O)N[C@H](C(=O)N[C@@H](CC(C)C)C(=O)N[C@@H](CC(=O)O)C(=O)N[C@H]1CCCCNC(=O)C[C@@H](C(=O)N[C@@H](CC(=O)O)C(=O)N[C@@H](Cc2ccccc2)C(=O)N[C@H](C(=O)N[C@@H](CC(N)=O)C(=O)N[C@@H](Cc2c[nH]c3ccccc23)C(=O)N[C@@H](CC(C)C)C(=O)N[C@H](C(=O)N[C@@H](CCC(N)=O)C(=O)N[C@H](C(=O)N[C@@H](CCCCN)C(=O)N[C@H](C(=O)N[C@H](C(=O)N[C@@H](CC(=O)O)C(N)=O)[C@@H](C)O)[C@@H](C)CC)[C@@H](C)O)[C@@H](C)CC)[C@@H](C)CC)NC(=O)[C@H](C)NC(=O)[C@H](C)NC(=O)[C@H](CCCCN)NC1=O)[C@@H](C)CC)[C@@H](C)O` [Example 103] (H-H[Aib]DGSFSDE[Nle][dF]TILDKKAADDFINWLIQTKITD-NH2; lactam 16-20), at human GLP1 receptor, the Emax came out at 97% and the EC50 is 2 nM. Moreover, at human GLP2 receptor, the Emax stood at 100% and the EC50 was 0.00158 nM.

For `CCCC[C@@H]1NC(=O)[C@H](CCC(=O)O)NC(=O)[C@@H](NC(=O)[C@H](CO)NC(=O)[C@](C)(Cc2ccccc2F)NC(=O)[C@H](CO)NC(=O)[C@@H](C)NC(=O)[C@H](CC(=O)O)NC(=O)C(C)(C)C(=O)NCCc2c[nH]cn2)CCCCNC(=O)C[C@@H](C(=O)N[C@@](C)(CC(C)C)C(=O)N[C@@H](CC(C)C)C(=O)N[C@@H](CC(=O)O)C(=O)N[C@H]2CCC(=O)NCCCC[C@@H](C(=O)N[C@@H](CC(=O)O)C(=O)N[C@@H](Cc3ccccc3)C(=O)N[C@H](C(=O)N[C@@H](CC(N)=O)C(=O)N[C@@H](Cc3c[nH]c4ccccc34)C(=O)N[C@@H](CC(C)C)C(=O)N[C@H](C(=O)N[C@@H](CCC(N)=O)C(=O)N[C@H]3CCC(=O)NCCCC[C@@H](C(N)=O)NC(=O)[C@H]([C@@H](C)O)NC(=O)[C@H]([C@@H](C)CC)NC(=O)[C@H](CCCCN)NC3=O)[C@@H](C)CC)[C@@H](C)CC)NC(=O)[C@H](C)NC(=O)[C@H](C)NC(=O)[C@H](CCCCN)NC2=O)NC(=O)[C@@H](Cc2ccccc2)NC1=O` [Example 25] ({Malonyl(2,2-Me2,histaminyl)}-D[dA]S[αMePhe(2-F)]SKE[Nle][dF]D[αMeL]LDEKAAKDFINWLIQEKITK-NH2; lactam 6-10, 14-18, 27-31 (inferred); C-terminus assumed), on human GLP1 receptor, the Emax is 97.6% and the EC50 was 0.0316 nM. In addition, at human GLP2 receptor, the maximal effect (Emax) was determined as 103% and the EC50 was 0.0251 nM.

In the case of `CCCC[C@@H]1NC(=O)[C@H](CCC(=O)O)NC(=O)[C@@H](NC(=O)[C@H](CO)NC(=O)[C@H](Cc2ccccc2)NC(=O)[C@H](CO)NC(=O)CNC(=O)[C@H](CC(=O)O)NC(=O)C(C)(C)NC(=O)[C@@H](N)Cc2c[nH]cn2)CCCCNC(=O)C[C@@H](C(=O)N[C@H](C(=O)N[C@@H](CC(C)C)C(=O)N[C@@H](CC(=O)O)C(=O)N[C@@H](CC(C)C)C(=O)N[C@@H](CCCCN)C(=O)N[C@@H](C)C(=O)N[C@@H](C)C(=O)N[C@@H](CCCCN)C(=O)N[C@@H](CC(=O)O)C(=O)N[C@@H](Cc2ccccc2)C(=O)N[C@H](C(=O)N[C@@H](CC(N)=O)C(=O)N[C@@H](Cc2c[nH]c3ccccc23)C(=O)N[C@@H](CC(C)C)C(=O)N[C@H](C(=O)N[C@@H](CCC(N)=O)C(=O)N[C@H](C(=O)N[C@@H](CCCCN)C(=O)N[C@H](C(=O)N[C@H](C(=O)N[C@@H](CC(=O)O)C(N)=O)[C@@H](C)O)[C@@H](C)CC)[C@@H](C)O)[C@@H](C)CC)[C@@H](C)CC)[C@@H](C)CC)NC(=O)[C@@H](Cc2ccccc2)NC1=O` [Example 85] (H-H[Aib]DGSFSKE[Nle][dF]DILDLKAAKDFINWLIQTKITD-NH2; lactam 8-12; N-terminus and C-terminus assumed), the Emax on human GLP1 receptor was 95.2%; at human GLP2 receptor, 103%. The EC50 at human GLP1 receptor is 12.6 nM; at human GLP2 receptor, 0.0316 nM.

The values are drawn from patent US20240270809A1, “ORAL GLP RECEPTOR AGONISTS” (priority 2020, published 2024).
